# In patent US20160184340A1, “THE USE OF SPINOSYNS AND SPINOSYN COMPOSITIONS AS LOCAL ANESTHETICS AND AS ANTIARRHYTHMIC AGENTS” (Entarco SA, priority 2010, published 2016):
# Several values for one entry are separate records, joined by “and”; a condition that tells them apart may be missing. Equal entries are not always repeated. Structures can show the parent of a compound that is named as a salt. Where two headings read alike, the source gives them in different places.
# Key:
# male Sprague-Dawley rats [1] = test: Pain response testing, foot pinch test (Example 1, comparison with Lidocaine); format: in vivo; settings: for Foot Pinch Test average per animal, round 1: group average (1 = no anesthetic effect, 0 = effect); for Foot Pinch Test average per animal, round 1 / Foot Pinch Test Results Round 1: 45 minutes post dose; for Foot Pinch Test average per animal, round 1 / Foot Pinch Test average per animal, round 2 / Foot Pinch Test average per animal, round 3 / Foot Pinch Test average per animal, round 4 / Foot Pinch Test average per animal, round 5 / Foot Pinch Test average per animal, round 6: SQ 1.33 mL/kg (spinosad 12 mg/kg; Lidocaine 26.6 mg/kg); for Foot Pinch Test average per animal, round 2 / Foot Pinch Test average per animal, round 3 / Foot Pinch Test average per animal, round 4 / Foot Pinch Test average per animal, round 5 / Foot Pinch Test average per animal, round 6: group average; for Foot Pinch Test average per animal, round 2 / Foot Pinch Test Results Round 2: 70 minutes post dose; for Foot Pinch Test average per animal, round 3 / Foot Pinch Test Results Round 3: 1.5 hour post dose; for Foot Pinch Test average per animal, round 4 / Foot Pinch Test Results Round 4: 2 hours post dose; for Foot Pinch Test average per animal, round 5 / Foot Pinch Test Results Round 5: 2.5 hours post dose; for Foot Pinch Test average per animal, round 6 / Foot Pinch Test Results Round 6: 4 hours post dose; for Foot Pinch Test Results Round 1 / Foot Pinch Test Results Round 2 / Foot Pinch Test Results Round 3 / Foot Pinch Test Results Round 4 / Foot Pinch Test Results Round 5 / Foot Pinch Test Results Round 6: individual animal; for Foot Pinch Test Results Round 1: single SQ 1.33 mL/kg into left hind foot (spinosad 12 mg/kg; Lidocaine 2% solution, 26.6 mg/kg); for Foot Pinch Test Results Round 2 / Foot Pinch Test Results Round 3 / Foot Pinch Test Results Round 4 / Foot Pinch Test Results Round 5 / Foot Pinch Test Results Round 6: single SQ 1.33 mL/kg (spinosad 12 mg/kg; Lidocaine 26.6 mg/kg)
# Procedure: Positive control: Lidocaine (Manufacturer: VetTek), as a Lidocaine Hydrochloride (2% solution or approx. 74 mM)
# Assay: Pain response testing-foot pinch
# Animals used: male Sprague-Dawley rats
# Experimental set-up. The test article was administered as follows:
# Approximately 1.33 mL/kg spinosad solution was administered once, subcutaneously at 12 mg/kg (9 mg/mL, 1.33 mL/kg) into the left hind foot of each rat in the treatment group (Group 3), positive control group (Group 2, Lidocaine, 1.33 mL/kg), and control vehicle group (Group 1, DMSO, 1.33 mL/kg).
# Beginning approximately 45 minutes post-dose all animals were subjected to pain response testing, foot pinch test. The test was conducted on each rat, in order, and then repeated on each, 5 more times (6 rounds of testing) through 4 hours post-dose. The foot pinch test measured the rodent's tolerance of pressure on their foot. The rat was removed from its cage and the treated foot was pinched. Whether or not the rodent's foot responded to the pinch was documented. The treatment group averages were compared to positive and negative control group averages (Table 3 and FIG. 1).
# Six total rounds of foot pinch-pain response testing were conducted at approximately 45, 70, 90, 120, 150, and 240 minutes post-dose. Time of dosing and pain testing results were recorded for each animal.
# [2] = target: cloned hERG potassium channels (Homo sapiens, UniProt Q12809)
# Procedure: Rational for Ion channel selection: Inhibition of hERG (IKr) channels closely predicts the cardiac action potential prolongation. […] This stable expressed hERG cell line is widely used for hERG testing. The percentage inhibition of spinosad on human-ERG currents were evaluated from the gold standard manual patch clamp studies.
# Test sample: spinosad (Supplier:Sigma-Aldrich/Fluka), in DMSO 9 mg/ml (0.8% w/w or approx. 12 mM)
# Positive control: Terfenadine (Supplier: Sigma-Aldrich), in DMSO at a concentration of 1 mM.
# All the final solutions contained no more than 0.3% DMSO.
# Assay: Electrophysiology recording: Micropipette was pulled from borosilicate glass with the pipette tip resistance between 3-5 MΩ. For each experiment, a single dish of cells is removed from the incubator, washed twice with room temperature ECS and then placed on the microscope stage. A commercial patch clamp amplifier was used for the whole cell recordings.
# Voltage protocol and current recording: The tail currents were evoked at room temperature once every 30 s by a 3 s −50 mV repolarizing pulse following a 2 s+50 mV depolarizing pulse with a hold voltage of −80 mV. A 50 ms depolarized pulse to −50 mV at the beginning of the voltage protocol served as a baseline for calculating the amplitude of the peak tail current. Only stable cells with recording parameters above threshold were allowed to enter the drug application procedure. The hERG currents were allowed to stabilize over a 3 minutes period in the presence of a vehicle alone prior to the application of spinosad. The cells were kept in the test solution until the peak tail current was stable (<5% change) for about 5 sweeps or for a maximum of 6 min, whichever came first.
# Acceptance criteria for measurements: 1. Whole-cell membrane resistance (Rm) was greater than 1000 MΩ throughout the experiment. 2. Initial current was greater than 300 pA. 3. Series resistance value following establishment of whole-cell mode was less than 12 MΩ. 4. The leak current that the cell began with or developed over time was less than 10% of the ionic current magnitude (up to a maximum of 80 pA).
# [3] = no value or species printed; cited from earlier work
# male Sprague-Dawley rats [4] = test: Foot pinch test, duration of action and reversible effects (Example 2); format: in vivo; settings: for Foot Pinch Test average per animal, round 1 / Foot Pinch Test average per animal, round 2 / Foot Pinch Test average per animal, round 3 / Foot Pinch Test average per animal, round 4 / Foot Pinch Test average per animal, round 5: group average; for Foot Pinch Test average per animal, round 1 / Foot Pinch Test Results Round 1: 1 hour post dose; for Foot Pinch Test average per animal, round 2 / Foot Pinch Test Results Round 2: 4 hours post dose; for Foot Pinch Test average per animal, round 3 / Foot Pinch Test Results Round 3: 6 hours post dose; for Foot Pinch Test average per animal, round 4 / Foot Pinch Test Results Round 4: 8 hours post dose; for Foot Pinch Test average per animal, round 5 / Foot Pinch Test Results Round 5: 24 hours post dose; for Foot Pinch Test Results Round 2 / Foot Pinch Test Results Round 3 / Foot Pinch Test Results Round 4 / Foot Pinch Test Results Round 5 / Foot Pinch Test Results Round 1: individual animal
# Procedure: This test was conducted to establish spinosad's reversible local anesthetic effects and confirm the prolonged effect. The same assay as in example 1 was used.
# Test article: spinosad in DMSO 9 mg/ml, administered in two doses; high dose 9 mg/kg and low dose 4.5 mg/kg.
# The treatment group averages were compared to positive and negative control group averages (Table 6 and FIG. 2).
# Sequence of cloned hERG potassium channels (Q12809 whole entry): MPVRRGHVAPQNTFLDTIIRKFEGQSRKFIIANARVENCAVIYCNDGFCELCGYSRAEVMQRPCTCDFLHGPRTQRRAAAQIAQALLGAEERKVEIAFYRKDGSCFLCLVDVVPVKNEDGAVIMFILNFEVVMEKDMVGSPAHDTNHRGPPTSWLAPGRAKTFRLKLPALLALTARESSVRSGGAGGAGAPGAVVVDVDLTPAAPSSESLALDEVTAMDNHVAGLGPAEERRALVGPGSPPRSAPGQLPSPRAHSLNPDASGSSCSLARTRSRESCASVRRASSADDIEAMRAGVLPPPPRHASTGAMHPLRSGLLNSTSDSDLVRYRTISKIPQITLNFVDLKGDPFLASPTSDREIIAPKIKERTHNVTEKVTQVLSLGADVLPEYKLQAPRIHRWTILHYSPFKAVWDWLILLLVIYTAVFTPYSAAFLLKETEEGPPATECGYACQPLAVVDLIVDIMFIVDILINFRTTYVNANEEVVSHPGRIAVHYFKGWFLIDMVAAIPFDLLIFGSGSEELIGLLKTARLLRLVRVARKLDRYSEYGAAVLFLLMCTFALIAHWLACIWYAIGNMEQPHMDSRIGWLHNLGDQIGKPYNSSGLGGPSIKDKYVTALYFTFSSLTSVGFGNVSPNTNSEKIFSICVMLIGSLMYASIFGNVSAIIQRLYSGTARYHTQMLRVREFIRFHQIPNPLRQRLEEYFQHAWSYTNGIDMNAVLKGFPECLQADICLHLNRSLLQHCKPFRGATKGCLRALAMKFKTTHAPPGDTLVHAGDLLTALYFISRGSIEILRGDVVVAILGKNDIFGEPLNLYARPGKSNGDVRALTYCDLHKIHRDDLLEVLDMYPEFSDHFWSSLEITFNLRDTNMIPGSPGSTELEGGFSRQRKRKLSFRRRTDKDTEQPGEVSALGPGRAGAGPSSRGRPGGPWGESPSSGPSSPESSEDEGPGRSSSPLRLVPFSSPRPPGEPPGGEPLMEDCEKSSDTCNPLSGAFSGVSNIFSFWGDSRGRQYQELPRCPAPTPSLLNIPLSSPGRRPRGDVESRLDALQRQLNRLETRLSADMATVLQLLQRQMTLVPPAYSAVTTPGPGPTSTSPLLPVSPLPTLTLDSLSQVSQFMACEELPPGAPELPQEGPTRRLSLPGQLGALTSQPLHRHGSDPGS
compound,measurement,setting,value
"CCN(CC)CC(=O)Nc1c(C)cccc1C [Lidocaine, Lidocaine Hydrochloride]",Time by which localized anesthetic effect resolved,"male Sprague-Dawley rats [1]; Lidocaine group, 1.33 mL/kg SQ, post-dose",~70 min
same,"Foot Pinch Test average per animal, round 1",male Sprague-Dawley rats [1],0.00
same,"Foot Pinch Test average per animal, round 2",male Sprague-Dawley rats [1],0.67
same,"Foot Pinch Test average per animal, round 3",male Sprague-Dawley rats [1],1.00
same,"Foot Pinch Test average per animal, round 4",male Sprague-Dawley rats [1],1.00
same,"Foot Pinch Test average per animal, round 5",male Sprague-Dawley rats [1],1.00
same,"Foot Pinch Test average per animal, round 6",male Sprague-Dawley rats [1],1.00
same,Foot Pinch Test Results Round 1,male Sprague-Dawley rats [1],0.00
same,Foot Pinch Test Results Round 2,male Sprague-Dawley rats [1]; Hydrochloride,1.00 (4×) and 0.00 (2×)
same,Foot Pinch Test Results Round 3,male Sprague-Dawley rats [1],1.00
same,Foot Pinch Test Results Round 4,male Sprague-Dawley rats [1],1.00
same,Foot Pinch Test Results Round 5,male Sprague-Dawley rats [1],1.00
same,Foot Pinch Test Results Round 6,male Sprague-Dawley rats [1],1.00
spinosad,% Block Cell #2,[2]; 1.35 μM,3.5%
same,% Block Cell #3,[2]; 1.35 μM,0.6%
same,Average Inhibition (%) of hERG currents,[2]; 1.35 μM,7.2±8.9%
same,% Block Cell #1,"[2]; 1.35 μM, hERG tail current, room temperature",17.3%
same,% Block Cell #1,[2]; 4.50 μM,26.9%
same,% Block Cell #2,[2]; 4.50 μM,19.2%
same,% Block Cell #3,[2]; 4.50 μM,19.4%
same,Average Inhibition (%) of hERG currents,[2]; 4.50 μM,21.8±4.4%
same,% Block Cell #1,[2]; 13.50 μM,30.3%
same,% Block Cell #2,[2]; 13.50 μM,48.4%
same,% Block Cell #3,[2]; 13.50 μM,47.7%
same,% Block Cell #4,[2]; 13.50 μM,40.2%
same,Average Inhibition (%) of hERG currents,[2]; 13.50 μM,41.7±8.4%
same,% Block Cell #2,[2]; 36.00 μM,77.5%
same,% Block Cell #3,[2]; 36.00 μM,84.1%
same,% Block Cell #4,[2]; 36.00 μM,73.2%
same,Average Inhibition (%) of hERG currents,[2]; 36.00 μM,78.3±5.5%
same,Reversibility of blocking on hERG current,[2]; saline wash,reversible after one minute of saline wash
same,Concentration dependence of hERG current inhibition,"[2]; whole cell recordings, HEK293-hERG stable cell line",inhibited hERG currents in a concentration-dependent manner
same,LD50 relative to lidocaine,[3],much higher LD50 than lidocaine
same,"Foot Pinch Test average per animal, round 1",male Sprague-Dawley rats [1],0.00
same,"Foot Pinch Test average per animal, round 2",male Sprague-Dawley rats [1],0.00
same,"Foot Pinch Test average per animal, round 3",male Sprague-Dawley rats [1],0.17
same,"Foot Pinch Test average per animal, round 4",male Sprague-Dawley rats [1],0.17
same,"Foot Pinch Test average per animal, round 5",male Sprague-Dawley rats [1],0.33
same,"Foot Pinch Test average per animal, round 6",male Sprague-Dawley rats [1],0.50
same,Foot Pinch Test Results Round 1,male Sprague-Dawley rats [1],0.00
same,Foot Pinch Test Results Round 2,male Sprague-Dawley rats [1],0.00
same,Foot Pinch Test Results Round 3,male Sprague-Dawley rats [1],0.00 (5×) and 1.00
same,Foot Pinch Test Results Round 4,male Sprague-Dawley rats [1],0.00 (5×) and 1.00
same,Foot Pinch Test Results Round 5,male Sprague-Dawley rats [1],0.00 (4×) and 1.00 (2×)
same,Foot Pinch Test Results Round 6,male Sprague-Dawley rats [1],0.00 (3×) and 1.00 (3×)
same,Duration of local anesthetic effect (remained unresolved),"male Sprague-Dawley rats [1]; single SQ dose 12 mg/kg, study duration 4 hours",≥ 4 h
same,Tolerability,male Sprague-Dawley rats [1]; single subcutaneous dose into the footpad at 12 mg/kg,well tolerated
same,"Foot Pinch Test average per animal, round 1",male Sprague-Dawley rats [4]; 4.5 mg/kg SQ,0.50
same,"Foot Pinch Test average per animal, round 2",male Sprague-Dawley rats [4]; 4.5 mg/kg SQ,0.83
same,"Foot Pinch Test average per animal, round 3",male Sprague-Dawley rats [4]; 4.5 mg/kg SQ,1.00
same,"Foot Pinch Test average per animal, round 4",male Sprague-Dawley rats [4]; 4.5 mg/kg SQ,1.00
same,"Foot Pinch Test average per animal, round 5",male Sprague-Dawley rats [4]; 4.5 mg/kg SQ,1.00
same,"Foot Pinch Test average per animal, round 1",male Sprague-Dawley rats [4]; 9.0 mg/kg SQ,0.00
same,"Foot Pinch Test average per animal, round 2",male Sprague-Dawley rats [4]; 9.0 mg/kg SQ,0.17
same,"Foot Pinch Test average per animal, round 3",male Sprague-Dawley rats [4]; 9.0 mg/kg SQ,0.50
same,"Foot Pinch Test average per animal, round 4",male Sprague-Dawley rats [4]; 9.0 mg/kg SQ,0.50
same,"Foot Pinch Test average per animal, round 5",male Sprague-Dawley rats [4]; 9.0 mg/kg SQ,1.00
same,Foot Pinch Test Results Round 2,"male Sprague-Dawley rats [4]; 4.5 mg/kg SQ, 4.5 mg/kg",1.00 (5×) and 0.00
same,Foot Pinch Test Results Round 3,male Sprague-Dawley rats [4]; 4.5 mg/kg SQ,1.00
same,Foot Pinch Test Results Round 4,male Sprague-Dawley rats [4]; 4.5 mg/kg SQ,1.00
same,Foot Pinch Test Results Round 5,male Sprague-Dawley rats [4]; 4.5 mg/kg SQ,1.00
same,Foot Pinch Test Results Round 2,"male Sprague-Dawley rats [4]; 9.0 mg/kg SQ, 9 mg/kg",0.00 (5×) and 1.00
same,Foot Pinch Test Results Round 3,"male Sprague-Dawley rats [4]; 9.0 mg/kg SQ, 9 mg/kg",0.00 (3×) and 1.00 (3×)
same,Foot Pinch Test Results Round 4,"male Sprague-Dawley rats [4]; 9.0 mg/kg SQ, 9 mg/kg",0.00 (3×) and 1.00 (3×)
same,Foot Pinch Test Results Round 5,male Sprague-Dawley rats [4]; 9.0 mg/kg SQ,1.00
same,Foot Pinch Test Results Round 1,male Sprague-Dawley rats [4]; spinosad high dose 9.0 mg/kg SQ foot pad,0.00
same,Foot Pinch Test Results Round 1,"male Sprague-Dawley rats [4]; spinosad low dose 4.5 mg/kg SQ foot pad, 4.5 mg/kg",1.00 (3×) and 0.00 (3×)
same,Duration of local anesthetic effect,male Sprague-Dawley rats [4]; single SQ dose 4.5 mg/kg,lasted during the first hour of study only
same,Duration of local anesthetic effect (remained unresolved),male Sprague-Dawley rats [4]; single SQ dose 9 mg/kg,6 to 8 h
same,Reversibility of local anesthetic effect,male Sprague-Dawley rats [4]; single SQ dose 9 mg/kg,fully reversible at 24 hours
same,Tolerability,male Sprague-Dawley rats [4]; single subcutaneous dose into the footpad at 9 mg/kg,well tolerated
